The first assay has as its target T1, recombinant human glucokinase (beta cell isoform) (Homo sapiens, UniProt P35557).
T1 construct: Full-length glucokinase (beta cell isoform) was His-tagged at the N-terminus; His tag (N); made in house; host or cells: E. coli BL21(DE3), vector pBCGK
T1 sequence (P35557 1-465): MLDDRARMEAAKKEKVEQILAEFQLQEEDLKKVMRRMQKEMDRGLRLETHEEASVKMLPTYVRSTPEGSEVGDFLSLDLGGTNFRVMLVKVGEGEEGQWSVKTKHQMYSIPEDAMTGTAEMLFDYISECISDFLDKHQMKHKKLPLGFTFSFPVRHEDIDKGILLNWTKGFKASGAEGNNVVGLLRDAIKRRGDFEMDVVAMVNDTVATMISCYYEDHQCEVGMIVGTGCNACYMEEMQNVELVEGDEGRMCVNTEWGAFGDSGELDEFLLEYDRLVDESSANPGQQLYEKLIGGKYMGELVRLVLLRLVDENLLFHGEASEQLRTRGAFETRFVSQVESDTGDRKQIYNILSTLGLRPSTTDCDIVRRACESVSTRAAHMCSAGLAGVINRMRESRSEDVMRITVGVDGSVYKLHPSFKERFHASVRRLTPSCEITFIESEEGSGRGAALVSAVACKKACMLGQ
The assay is described as follows: Assay 1: Evaluating Activator Potency and Maximum Activation at 5 mM Glucose. The class given is biochemical.
Conditions: not given
The method, then: Representative compounds of this invention were evaluated in biochemical assays (Assay 1 or Assay 2) to characterize their glucokinase activation properties.
The recombinant human glucokinase protein utilized in both assays was prepared and purified as described below.
BL21(DE3) cells (Invitrogen Corporation, Carlsbad, Calif.) containing pBCGK (C or N H is) vector were grown at 37° C. (in 2XYT) until the OD600 was between 0.6-1.0. Expression was induced by addition of isopropylthiogalactoside to a final concentration of 0.1-0.2 mM to the cells which were then incubated overnight at 23° C. The next day, cells were harvested via centrifugation at 5000 rpm for 15 minutes at 4° C. The cell pellet was stored at −80° C. for future purification.
Beta Cell Glucokinase His-Taq Purification Conditions: A Ni-NTA (Quigan, Germantown, Md.) column (15-50 mL) was used for separation. Two buffers were prepared, 1) a lysis/nickel equilibration and wash buffer and 2) a nickel elution buffer. The lysis/equilibration/wash buffer was prepared as such: 25 mM HEPES buffer at pH 7.5, 250 mM NaCl, 20 mM imidazole, and 14 mM β-mercaptoethanol as final concentrations. The elution buffer was prepared as such: 25 mM HEPES at pH 7.5, 250 mM NaCl, 400 mM imidazole, and 14 mM β-mercaptoethanol as final concentrations. The buffers were each filtered with a 0.22 μm filter prior to use. The cell pellet (1 L culture) was resuspended in 300 mL of the lysis/equilibration buffer. The cells were then lysed (3 times) with a Microfluidics Model 110Y microfluidizer (Microfluidics Corporation, Newton, Mass.). The slurry was centrifuged with a Beckman Coulter Model LE-80K ultracentrifuge (Beckman Coulter, Fullerton, Calif.) at 40,000 rpm for 45 minutes at 4° C. The supernatant was transferred to a chilled flask. A volume of 20 μl was saved for gel analysis. A Pharmacia AKTA (GMI, Inc., Ramsey, Minn.) purification system was used for separation. The prime lines were purged with lysis/equilibration buffer. The Ni-NTA column was equilibrated with 200 mL of the lysis/equilibration buffer at a flow rate of 5 mL/minute. The supernantant was loaded over the column at 4 mL/minute and the flow-through was collected in a flask. The unbound proteins were washed with lysis/equilibration buffer at a flow rate of 5 mL/minute until the ultraviolet reaches baseline. The protein was then eluted from the column with the imidazole elution buffer via imidazole gradient 20 mM to 400 mM over 320 mL. The column was then stripped of any additional protein with 80 mL of the elution buffer. The elution fractions were each 8 mL, for a total yield of 50 samples. Fractions were analyzed by sodium dodecyl sulfate polyacrylamide (SDS-PAGE) and the fractions containing protein of interest were pooled and concentrated to 10 mL using ultrafiltration cell with a 10,000 molecular weight cut-off (MWCO) Millipore membrane (Sigma-Aldrich, St. Louis, Mo.) under nitrogen gas (60 psi). Protein was further purified by size exclusion chromatography (SEC) using a […] (320 mL) (Amersham Pharmacia, Uppsala, Sweden). SEC was equilibrated with 450 mL sizing buffer containing 25 mM HEPES pH 7.0, 50 mM NaCl, and 5 mM dithiothreitol. Concentrated protein was then loaded over SEC and elution with 400 mL sizing buffer was performed overnight at 0.5 mL/minute. The elution fractions were 5 mL each. The fractions were analyzed by SDS-PAGE and protein containing fractions were pooled. Concentration was measured using Bradford Assay/BSA Standard. Purified protein was stored in small aliquots at −80° C.
Assay 1: Evaluating Activator Potency and Maximum Activation at 5 mM Glucose
Full-length glucokinase (beta cell isoform) was His-tagged at the N-terminus and purified by a Ni column followed by size exclusion chromatography as described above. Glucose was obtained from Calbiochem (San Diego, Calif.) and other reagents were purchased from Sigma-Aldrich (St. Louis, Mo.).
In general, EC50 refers to the midpoint of the concentration-response curve. For `Cc1cnc(NC(=O)c2cc(Oc3cnc(C(=O)N(C)C)c(F)c3)c3cn(C)nc3c2)cn1` [Example 1AC, 4-{[6-(dimethylcarbamoyl)-5-fluoropyridin-3-yl]oxy}-2-methyl-N-(5-methylpyrazin-2-yl)-2H-indazole-6-carboxamide], the EC50 was determined as 1630 nM.

The same assay, now with this note: Assay 1; 5 mM glucose; NADH depletion at 340 nm, PK/LDH coupled; read-out: Glucokinase EC50.
As for `Cc1ccc(NC(=O)c2cc(Oc3cnc(C(=O)N4CCCC4)cn3)c3cn(C)nc3c2)nc1` [Example 1A, 2-methyl-N-(5-methylpyridin-2-yl)-4-(5-(pyrrolidine-1-carbonyl)pyrazin-2-yloxy)-2H-indazole-6-carboxamide], the EC50 worked out at 293 nM.

Consider `CN(C)C(=O)c1ncc(Oc2cc(C(=O)Nc3ccc(Cl)cn3)cc3nn(C)cc23)cn1` [Example 1AA, N-(5-chloropyridin-2-yl)-4-(2-(dimethylcarbamoyl)pyrimidin-5-yloxy)-2-methyl-2H-indazole-6-carboxamide], for which the EC50 turned out to be 863 nM.

On to `CN(C)C(=O)c1ncc(Oc2cc(C(=O)Nc3ccc(C(F)(F)F)cn3)cc3nn(C)cc23)cn1` [Example 1AB, 4-(2-(dimethylcarbamoyl)pyrimidin-5-yloxy)-2-methyl-N-(5-(trifluoromethyl)-pyridin-2-yl)-2H-indazole-6-carboxamide], for which the EC50 came to 1040 nM. In the case of `CCn1cc2c(Oc3ccc(S(=O)(=O)CC)cc3)cc(C(=O)Nc3ccc(C)cn3)cc2n1` [Example 1AD, 2-ethyl-4-[4-(ethylsulfonyl)phenoxy]-N-(5-methylpyridin-2-yl)-2H-indazole-6-carboxamide], the EC50 stood at 463 nM. The same measure, in the same setting: then `CCn1cc2c(Oc3cnc(C(=O)N(C)C)c(F)c3)cc(C(=O)Nc3cnc(C)cn3)cc2n1` [Example 1AE, 4-(6-(dimethylcarbamoyl)-5-fluoropyridin-3-yloxy)-2-ethyl-N-(5-methylpyrazin-2-yl)-2H-indazole-6-carboxamide], with 569 nM. For the compound `Cn1cc2c(Oc3cnc(C(=O)N4CCCC4)cn3)cc(C(=O)Nc3cnccn3)cc2n1` [Example 1B, 2-methyl-N-pyrazin-2-yl-4-{[5-(pyrrolidin-1-ylcarbonyl)pyrazin-2-yl]oxy}-2H-indazole-6-carboxamide], the EC50 amounted to 960 nM. Turning to `Cc1ccc(NC(=O)c2cc(Oc3ccc(C(=O)N4CCCC4)c(F)c3)c3cn(C)nc3c2)nc1` [Example 1C, 4-[3-fluoro-4-(pyrrolidin-1-ylcarbonyl)-phenoxy]-2-methyl-N-(5-methylpyridin-2-yl)-2H-indazole-6-carboxamide], the EC50 came to 1490 nM. Same read-out and setting: as for `Cn1cc2c(Oc3ccc(C(=O)N4CCCC4)c(F)c3)cc(C(=O)Nc3cnccn3)cc2n1` [Example 1D, 4-[3-fluoro-4-(pyrrolidin-1-ylcarbonyl)-phenoxy]-2-methyl-N-pyrazin-2-yl-2H-indazole-6-carboxamide], the figure is 735 nM; as for `CN(C)C(=O)c1cnc(Oc2cc(C(=O)Nc3cnccn3)cc3nn(C)cc23)cn1` [Example 1E, 4-{[5-(dimethylcarbamoyl)pyrazin-2-yl]oxy}-2-methyl-N-pyrazin-2-yl-2H-indazole-6-carboxamide], 4310 nM; as for `Cc1cnc(NC(=O)c2cc(Oc3cnc(C(=O)N(C)C)cn3)c3cn(C)nc3c2)cn1` [Example 1F, 4-{[5-(dimethylcarbamoyl)pyrazin-2-yl]oxy}-2-methyl-N-(5-methylpyrazin-2-yl)-2H-indazole-6-carboxamide], 2490 nM. Turning to `Cc1ccc(NC(=O)c2cc(Oc3cnc(C(=O)N(C)C)cn3)c3cn(C)nc3c2)nc1` [Example 1G, 4-{[5-(dimethylcarbamoyl)pyrazin-2-yl]oxy}-2-methyl-N-(5-methylpyridin-2-yl)-2H-indazole-6-carboxamide], the EC50 was found to be 1550 nM. Consider `COc1cnc(NC(=O)c2cc(Oc3cnc(C(=O)N(C)C)cn3)c3cn(C)nc3c2)cn1` [Example 1H, 4-{[5-(dimethylcarbamoyl)pyrazin-2-yl]oxy}-N-(5-methoxypyrazin-2-yl)-2-methyl-2H-indazole-6-carboxamide], for which the EC50 amounted to 2770 nM. For `Cc1cnc(NC(=O)c2cc(Oc3cnc(C(F)(F)F)cn3)c3cn(C)nc3c2)cn1` [Example 1I, 2-methyl-N-(5-methylpyrazin-2-yl)-4-{[5-(trifluoromethyl)pyrazin-2-yl]oxy}-2H-indazole-6-carboxamide], the EC50 is 19400 nM. Consider `Cn1ccc(NC(=O)c2cc(Oc3cnc(C(F)(F)F)cn3)c3cn(C)nc3c2)n1` [Example 1J, 2-methyl-N-(1-methyl-1H-pyrazol-3-yl)-4-{[5-(trifluoromethyl)pyrazin-2-yl]oxy}-2H-indazole-6-carboxamide], for which the EC50 worked out at 22400 nM.

With `Cn1cc2c(Oc3cnc(C(F)(F)F)cn3)cc(C(=O)Nc3cnn(C)n3)cc2n1` [Example 1K, 2-methyl-N-(2-methyl-2H-1,2,3-triazol-4-yl)-4-{[5-(trifluoromethyl)pyrazin-2-yl]oxy}-2H-indazole-6-carboxamide], the EC50 is 16100 nM. As for `Cc1cnc(NC(=O)c2cc(Oc3ccc(S(C)(=O)=O)cc3)c3cn(C)nc3c2)cn1` [Example 1L, 2-methyl-N-(5-methylpyrazin-2-yl)-4-[4-(methylsulfonyl)phenoxy]-2H-indazole-6-carboxamide], the EC50 came out at 7810 nM.

A further assay concerns the target T2, recombinant human glucokinase (Homo sapiens, UniProt P35557).
T2 construct: Full-length glucokinase (beta cell isoform) was His-tagged at the N-terminus and purified by a Ni column followed by size exclusion chromatography as described above; His tag; made in house; host or cells: E. coli BL21(DE3), vector pBCGK
T2 sequence (P35557 1-465): T1 sequence (P35557 1-465)
The assay is described as follows: Assay 2: Evaluating Activator Potency in a Matrix Assay at Multiple Glucose Concentrations. The class given is biochemical. The settings on record: Assay 2 matrix assay; 16 glucose concentrations; intrinsic EC50 = concentration affording a 50% reduction in the enzyme's Km (for glucose); read-out: Glucokinase EC50.
Take `CCn1cc2c(Oc3ccc(S(N)(=O)=O)cc3)cc(C(=O)Nc3ccc(F)cn3)cc2n1` [Example 1CT, 4-[4-(aminosulfonyl)phenoxy]-2-ethyl-N-(5-fluoropyridin-2-yl)-2H-indazole-6-carboxamide]: the EC50 was determined as 1820 nM. As for `CCc1cnc(NC(=O)c2cc(Oc3ccc(S(N)(=O)=O)cc3)c3cn(CC)nc3c2)cn1` [Example 1CU, 4-[4-(aminosulfonyl)phenoxy]-2-ethyl-N-(5-ethylpyrazin-2-yl)-2H-indazole-6-carboxamide], the EC50 is 1370 nM. Turning to `CCn1cc2c(Oc3ccc(S(C)(=N)=O)cc3)cc(C(=O)Nc3ccc(C)cn3)cc2n1` (stereo not drawn) [Example 1CV, 2-ethyl-N-(5-methylpyridin-2-yl)-4-[4-(S-methylsulfonimidoyl)phenoxy]-2H-indazole-6-carboxamide], the EC50 stood at 715 nM. On to `CCn1cc2c(Oc3ccc(S(C)(=N)=O)cc3)cc(C(=O)Nc3ccn(C)n3)cc2n1` (stereo not drawn) [Example 1CY, 2-ethyl-N-(1-methyl-1H-pyrazol-3-yl)-4-[4-(S-methylsulfonimidoyl)phenoxy]-2H-indazole-6-carboxamide], for which the EC50 came to 2470 nM.

The record behind these values is patent US20110319379A1, “Substituted Indazole Amides And Their Use As Glucokinase Activators” (priority 2009, published 2011).
